The record followed here is ChEMBL document CHEMBL1201862, “PubChem BioAssay data set” (2004).

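Briefly, cells in 96-well plates were exposed to five compound concentrations for 48 h, and endpoints were estimated by linear interpolation. GI50: concentration for 50% inhibition of growth.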 Activity calls are given as the source filed them. Rule as the data show it: active = GI50 up to about 1.1 µM and inactive = higher. A value given as a limit tells only on which side of the number the result lay.

Experiment in all cases: growth of human tumour cells (NCI), 48 h
The test system of test [1] is BT-549.
Test [2] deals with T47D.
Test [3] relates to Hs-578T.
Test [4] concerns MDA-N.

As for `COc1cc(-c2cc(=O)c3c(OC)c(OC)c(OC)c(OC)c3o2)c(OC)c(OC)c1OC`, the GI50 in test [1] is 17.6 µM (inactive); in test [2], 16.2 µM (inactive); in test [3], 19.8 µM (inactive); in test [4], 41.4 µM (inactive).
`Cc1cccc2c(=O)c3c(O)cc(O)cc3n(C)c12`: the GI50 is > 100 µM (inactive) in test [1], 6.37 µM (inactive) in test [3] and > 100 µM (inactive) in test [4].
Take `OC(C1=C/C(=C\c2ccncc2)c2ccccc21)c1ccncc1` (centres undefined): the GI50 in test [1] is 19 µM (inactive); in test [2], 4.38 µM (inactive); in test [3], 12.2 µM (inactive); in test [4], 10.8 µM (inactive).
Taken in the same sequence, the figures for `Cc1c(C)c(C)c(-n2c(=O)n(C)c(=O)n2-n2c(=O)n(C)c(=O)n2-c2c(C)c(C)c(C)c(C)c2C)c(C)c1C` were > 100 µM (inactive), > 100 µM (inactive), 0.0533 µM (active) and > 100 µM (inactive).
Regarding `Cc1c2c(OCCN3CCCCC3)nn(C)c(=O)c2c(C)n1-c1ccccc1`, the GI50 was 44.4 µM (inactive) in test [1], 41.2 µM (inactive) in test [2], 54.1 µM (inactive) in test [3] and 35.1 µM (inactive) in test [4].
Consider `COC(=O)[C@@H](NC(=O)N(CCC#N)CCCN(C(=O)N[C@H](Cc1ccccc1)C(=O)OC)c1ccccc1)C(C)C`, for which the GI50 in test [1] was > 100 µM (inactive); in test [2], 36.8 µM (inactive); in test [3] it was > 100 µM (inactive); in test [4], 95.3 µM (inactive).
As for `O=C(CC(C(=O)c1ccoc1)c1ccco1)c1ccco1` (centres undefined), the GI50 in test [2] is > 100 µM (inactive); in test [3] it was > 100 µM (inactive); in test [4], 29.4 µM (inactive).
On to `CC1(C)NC(C(=O)c2ccccc2)=[N+]([O-])C1(O)c1ccccc1` (centres undefined), for which the GI50 in test [2], in test [3] and in test [4] was > 100 µM (inactive) in each case.
Consider `COc1cccc(-c2cccc(SC)n2)n1`, for which the GI50 in test [1] is 31.3 µM (inactive); in test [2] it was 18.2 µM (inactive); in test [4] it was 29.6 µM (inactive).
On to `Cc1cc(S(=O)(=O)Nc2n[nH]c(-c3ccc(Cl)cc3)n2)c(SSc2cc(Cl)c(C)cc2S(=O)(=O)Nc2n[nH]c(-c3ccc(Cl)cc3)n2)cc1Cl`, for which the GI50 is 40.6 µM (inactive) in test [1], 14.6 µM (inactive) in test [2], 28.2 µM (inactive) in test [3] and 41.3 µM (inactive) in test [4].
On to `Cc1nc2ccc(F)cc2c(Cl)c1CCCl`, for which the GI50 was 36.9 µM (inactive) in test [1], 38.6 µM (inactive) in test [2] and 43.9 µM (inactive) in test [3].
`CCN(CC)CCn1c2cc3c(cc2c(=O)c2cccnc21)OCO3`: the GI50 in test [1] is > 10 µM (inactive); in test [2], > 10 µM (inactive); in test [3], > 10 µM (inactive); in test [4], 8.93 µM (inactive).
`Cc1ccc(-c2cnc(NC3OC(COC(=O)c4ccccc4)C(OC(=O)c4ccccc4)C(OC(=O)c4ccccc4)C3OC(=O)c3ccccc3)s2)cc1` (centres undefined): the GI50 in test [1] is > 100 µM (inactive); in test [2] it was > 100 µM (inactive); in test [3] it was 82 µM (inactive); in test [4] it was > 100 µM (inactive).
Consider `Cc1cccc(Nc2cnc(N)nc2N)c1`, for which the GI50 in test [2] and in test [4] was > 100 µM (inactive) throughout.
On to `O=C1N/N=C\Nc2ccc(cc2)S(=O)(=O)c2ccc(cc2)/N=C\NNC1=O`, for which the GI50 was 72.8 µM (inactive) in test [1], > 100 µM (inactive) in test [2], > 100 µM (inactive) in test [3] and > 100 µM (inactive) in test [4].
As for `C=CCO/N=C/c1cc(/N=C(/S)c2ccoc2C)ccc1Cl`, the GI50 was 16.2 µM (inactive) in test [1], 3.65 µM (inactive) in test [2], 24.4 µM (inactive) in test [3] and 13.6 µM (inactive) in test [4].
Taken in the same sequence, the figures for `CN1c2ccc(O)c(O)c2-c2cc(O)cc3c2C1CCC3` (centres undefined) were 17.3 µM (inactive), 15.9 µM (inactive), 35.2 µM (inactive) and 16.9 µM (inactive).
Taken in the same sequence, the figures for `O=S(=O)(O)c1ccc2cc(/N=N/c3c(O)ccc4ccccc34)ccc2c1` were > 100 µM (inactive), > 100 µM (inactive), 69.2 µM (inactive) and > 100 µM (inactive).
For `CC(C)(C)OCC1NC(=O)[C@@H]2Cc3c([nH]c4ccccc34)C(C3CCCCC3)N2C1=O` (some centres undefined), the GI50 in test [1] is 20.9 µM (inactive); in test [2], 20.6 µM (inactive); in test [3], 20.8 µM (inactive); in test [4], 16.7 µM (inactive).
Regarding `C/C(=N\NC(=S)NCCCCNC(=S)N/N=C(\C)c1ccccn1)c1ccccc1`, the GI50 in test [1] was 0.897 µM (active); in test [2] it was 0.351 µM (active); in test [3] it was > 23.6 µM (inactive); in test [4], 2.25 µM (inactive).
For `C=CCOC1OC(CO[Si](C)(C)C(C)(C)C)C(OCc2ccccc2)C(OCc2ccccc2)C1OCc1ccccc1` (centres undefined), in that order: 65 µM (inactive), 35.6 µM (inactive), 45.2 µM (inactive) and > 100 µM (inactive).
Turning to `CCCC(=O)Nc1cc(/C=C/C(=O)N2CC(CCl)c3ccc(N)cc32)n(C)c1` (centres undefined), the GI50 in test [1] was 0.193 µM (active); in test [2], 0.158 µM (active); in test [3], 0.277 µM (active); in test [4], 0.219 µM (active).
Taken in the same sequence, the figures for `O=C1NC(=O)C(C(CC(=O)c2ccc([N+](=O)[O-])cc2)c2ccccc2)C(=O)N1` (centres undefined) were > 100 µM (inactive), 20.5 µM (inactive), 10.9 µM (inactive) and 27.2 µM (inactive).
Taken in the same sequence, the figures for `NC(=O)C(NC=O)c1ccccc1` (centres undefined) were > 100 µM (inactive), > 100 µM (inactive), > 100 µM (inactive) and > 100 µM (inactive).
Taken in the same sequence, the figures for `O=C(n1c(=O)n(-c2ccc(Cl)cc2)c(=O)n1C(=O)C(Cl)(Cl)Cl)C(Cl)(Cl)Cl` were 66.5 µM (inactive), > 100 µM (inactive), > 100 µM (inactive) and > 100 µM (inactive).
With `O=C(N/N=C\c1cccc2c([N+](=O)[O-])cccc12)Nc1ccccc1`, the GI50 was 8.95 µM (inactive) in test [1], 6.04 µM (inactive) in test [2], 13.2 µM (inactive) in test [3] and 13.1 µM (inactive) in test [4].
For `CC(C)(C)OC(=O)N/N=C(/N)Cc1ccc(Cl)cc1`, in that order: > 100 µM (inactive), > 100 µM (inactive), > 100 µM (inactive) and > 100 µM (inactive).
Take `COc1cnnc2c(C)c(-c3ccccc3)nn12`: the GI50 was > 100 µM (inactive) in test [1], 2.6 µM (inactive) in test [2], > 66.1 µM (inactive) in test [3] and 60.5 µM (inactive) in test [4].
With `COc1ccc(C2CC(c3cc4c(C)c(C(=O)c5ccccc5)oc4cc3O)=Nc3ccccc3S2)cc1OC` (centres undefined), the GI50 in test [1] was > 56.5 µM (inactive); in test [3], 25.8 µM (inactive); in test [4], > 40.2 µM (inactive).
Taken in the same sequence, the figures for `N=C1N(S(=O)(=O)c2ccccc2)[C@@H](Cc2ccccc2)[C@H](c2ccccc2)C1(c1ccccc1)c1ccccc1` were > 100 µM (inactive), > 100 µM (inactive) and > 100 µM (inactive).
Turning to `O=[As](O)(O)c1ccc(/N=N/c2ccc([As](=O)(O)O)cc2)cc1`, the GI50 in test [1], in test [2], in test [3] and in test [4] was > 100 µM (inactive) throughout.
`CC1(C)CCCC2(C)C3=C(CCC12)C(=O)OC3` (centres undefined): the GI50 in test [1] was 80.5 µM (inactive); in test [2], 59.2 µM (inactive); in test [3], 97.9 µM (inactive); in test [4] it was > 100 µM (inactive).
Consider `OCCOCn1nncc1Cn1ncc2c(O)ncnc21`, for which the GI50 in test [1], in test [2] and in test [3] was > 100 µM (inactive) each time.
`COc1ccccc1NC(=S)NNC(=O)c1cc(-c2ccccc2)nc2ccccc12`: the GI50 in test [1] is 8.26 µM (inactive); in test [2], 15.9 µM (inactive); in test [3] it was 16.6 µM (inactive); in test [4] it was 3.35 µM (inactive).
For `COc1cccc(C2c3cc4c(cc3OC(C)(N3CCCC3)C2C)OCO4)c1O` (centres undefined), in that order: 3.26 µM (inactive), 12.1 µM (inactive), 2 µM (inactive) and 1.93 µM (inactive).
On to `CC(=O)O[C@H]1C(=O)N(c2cc3c4ccccc4ccc3c3ccccc23)[C@@H]1c1ccccc1`, for which the results for the GI50 in test [2], in test [3] and in test [4] were 6.01 µM (inactive), 5.16 µM (inactive) and 3.86 µM (inactive), respectively.
As for `COc1cc2c(/C=C3/C(=O)N(C)c4ccc(O)cc43)c(Cl)[nH]c2cc1C`, the GI50 in test [1] is 0.811 µM (active); in test [2], 3.41 µM (inactive); in test [3], 0.269 µM (active).
For `C=C1[C@H](OCC(C)C)[C@@H](OCC(C)C)[C@@H](O)C(C)(C)/C=C/[C@H](C)C(=O)[C@@]2(O)C[C@H](C)[C@H](O)[C@@H]2[C@H]1OCC(C)C`, the GI50 in test [1] was > 7.5 µM (inactive); in test [2], > 7.5 µM (inactive); in test [3], 2.77 µM (inactive); in test [4], 1.54 µM (inactive).
Turning to `O=C1c2ccccc2-c2nc(-c3cccs3)cc3c2c1nc1ccccc13`, the GI50 in test [1] is 22 µM (inactive); in test [3], 21.3 µM (inactive); in test [4], 6.97 µM (inactive).
`COc1ccc(C2NC(=S)Nc3c2c(=O)oc2c3ccc3ccccc32)cc1` (centres undefined): the GI50 in test [1] was 45.7 µM (inactive); in test [2], 50.6 µM (inactive); in test [3], 75.7 µM (inactive); in test [4], 76.9 µM (inactive).
Turning to `CSC12c3cc(C)n(-c4ccccc4)c3CC(C)(C)CN1C(=O)C2Oc1ccccc1` (centres undefined), the GI50 was 85.7 µM (inactive) in test [1] and > 100 µM (inactive) in test [2].
Taken in the same sequence, the figures for `CC1(C)C(=O)N(O)C(C)(C)N1N=O` were > 10 µM (inactive) and > 10 µM (inactive).
Turning to `CC(C)(C)OC(=O)NC(CS(=O)(=O)O)C(=O)O` (centres undefined), the GI50 in test [1], in test [2] and in test [4] was > 100 µM (inactive) each time.
